From ChEMBL document CHEMBL1201862, “PubChem BioAssay data set” (2004)
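Assay format: 96-well plates, 48-hour exposure. At the GI50, growth is halved.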 The source made the active and inactive calls. Cut-off read from the data, not from the text of the source: active = GI50 up to about 1.1 µM and inactive = higher.

Columns and labels:
Experiment in all cases: NCI tumour cell line growth inhibition, 48 h
SNB-78 = test system: SNB-78
NCI-H226 = test system: NCI-H226
LXFL 529 = test system: LXFL 529
U-251 = test system: U-251
ACHN = test system: ACHN
HL-60 = test system: HL-60
Malme-3M = test system: Malme-3M
SK-MEL-5 = test system: SK-MEL-5
DMS-114 = test system: DMS-114
M14 = test system: M14
RPMI-8226 = test system: RPMI-8226
COLO 205 = test system: COLO 205
A498 = test system: A498
M19-MEL = test system: M19-MEL
HOP-18 = test system: HOP-18
HCC 2998 = test system: HCC 2998
UACC-62 = test system: UACC-62
SF-539 = test system: SF-539
NCI-H23 = test system: NCI-H23
UACC-257 = test system: UACC-257
XF498 = test system: XF498
OVCAR-8 = test system: OVCAR-8
OVCAR-4 = test system: OVCAR-4
SNB-19 = test system: SNB-19
MOLT-4 = test system: MOLT-4
RXF 631 = test system: RXF 631
SK-MEL-2 = test system: SK-MEL-2
OVCAR-3 = test system: OVCAR-3
CCRF-CEM = test system: CCRF-CEM
CAKI-1 = test system: CAKI-1
IGROV-1 = test system: IGROV-1
SK-OV-3 = test system: SK-OV-3
SF-295 = test system: SF-295
A549 = test system: A549
NCI-H460 = test system: NCI-H460
OVCAR-5 = test system: OVCAR-5
K562 = test system: K562
SW-620 = test system: SW-620
HCT-116 = test system: HCT-116
EKVX = test system: EKVX
LOX IMVI = test system: LOX IMVI
SNB-75 = test system: SNB-75
SN12C = test system: SN12C
TK-10 = test system: TK-10
UO-31 = test system: UO-31
KM-20L2 = test system: KM-20L2
HOP-92 = test system: HOP-92
786-0 = test system: 786-0
HOP-62 = test system: HOP-62
HT-29 = test system: HT-29
HCT-15 = test system: HCT-15
KM12 = test system: KM12
SR = test system: SR
DLD-1 = test system: DLD-1
SK-MEL-28 = test system: SK-MEL-28
NCI-H522 = test system: NCI-H522
RXF 393 = test system: RXF 393
SF-268 = test system: SF-268
DMS-273 = test system: DMS-273

Measured: GI50

O=C(NCCCN1CCN(CCCNC(=O)c2cccc3ccccc23)CC1)c1cccc2ccccc12
active: HOP-92 0.107 µM
> 100 µM: HCT-15
inactive: SNB-78 41.3 µM | NCI-H226 > 100 µM | LXFL 529 89.7 µM | U-251 97.5 µM | ACHN > 100 µM | HL-60 79.6 µM | Malme-3M 57.4 µM | SK-MEL-5 36.4 µM | DMS-114 59.8 µM | M14 > 100 µM | RPMI-8226 > 100 µM | COLO 205 > 100 µM | A498 > 100 µM | M19-MEL > 100 µM | HOP-18 > 100 µM | HCC 2998 35.1 µM | UACC-62 > 100 µM | SF-539 54.7 µM | NCI-H23 57.8 µM | UACC-257 > 100 µM | XF498 21.9 µM | OVCAR-8 > 100 µM | OVCAR-4 > 100 µM | SNB-19 76.7 µM | MOLT-4 > 100 µM | RXF 631 75.7 µM | SK-MEL-2 > 100 µM | OVCAR-3 79.3 µM | CCRF-CEM > 100 µM | CAKI-1 51.3 µM | IGROV-1 78.3 µM | SK-OV-3 23 µM | SF-295 54.8 µM | A549 > 100 µM | NCI-H460 93.1 µM | OVCAR-5 > 100 µM | K562 41.4 µM | SW-620 > 100 µM | HCT-116 39.1 µM | EKVX > 100 µM | LOX IMVI > 100 µM | SNB-75 20.9 µM | SN12C > 100 µM | TK-10 65.3 µM | UO-31 32.3 µM | KM-20L2 34 µM | 786-0 44.1 µM | HOP-62 30.8 µM | HT-29 41.2 µM | KM12 > 100 µM

CC(=O)Oc1c(Br)ccc2cc(C(Br)Br)c(C(=O)c3ccccc3)nc12
22.8 µM: HCT-15
inactive: SNB-78 27.7 µM | NCI-H226 19.7 µM | SR 28.1 µM | LXFL 529 30.6 µM | U-251 19.2 µM | DLD-1 24 µM | ACHN 22.1 µM | Malme-3M 24.9 µM | SK-MEL-5 19.1 µM | DMS-114 24.8 µM | SK-MEL-28 15.9 µM | M14 21.2 µM | RPMI-8226 > 10 µM | COLO 205 24.4 µM | M19-MEL 22.3 µM | HOP-18 17.2 µM | HCC 2998 17.9 µM | UACC-62 20 µM | SF-539 18.6 µM | NCI-H23 20 µM | NCI-H522 4.21 µM | UACC-257 1.88 µM | XF498 14.8 µM | OVCAR-8 23.6 µM | OVCAR-4 5.01 µM | SNB-19 19.9 µM | MOLT-4 20.7 µM | RXF 631 23.5 µM | SK-MEL-2 20.7 µM | RXF 393 17.9 µM | OVCAR-3 > 10 µM | CAKI-1 3.78 µM | IGROV-1 29.1 µM | SF-295 18.7 µM | A549 24.3 µM | NCI-H460 19.9 µM | OVCAR-5 17.3 µM | K562 20.2 µM | SW-620 22.4 µM | HCT-116 21.8 µM | EKVX 22.5 µM | LOX IMVI 23.9 µM | SNB-75 20.5 µM | SN12C 20 µM | TK-10 17.7 µM | UO-31 19.2 µM | SF-268 25.7 µM | KM-20L2 19.4 µM | 786-0 22.6 µM | HOP-62 19.1 µM | HT-29 19.2 µM | DMS-273 20.6 µM | KM12 19.6 µM

CC1=C(C(=O)Nc2ccccc2)C(c2ccc3c(c2)OCO3)C(C(=O)Nc2ccccc2)=C(C)N1
33 µM: HCT-15
inactive: NCI-H226 39.6 µM | LXFL 529 20 µM | DLD-1 36.8 µM | ACHN 33.7 µM | HL-60 18.1 µM | Malme-3M 62.1 µM | SK-MEL-5 33.7 µM | DMS-114 26.2 µM | SK-MEL-28 31.6 µM | M14 33.7 µM | RPMI-8226 23.1 µM | COLO 205 42.7 µM | A498 19.5 µM | M19-MEL 40.4 µM | HOP-18 41.5 µM | HCC 2998 44.6 µM | UACC-62 30.1 µM | SF-539 26.5 µM | NCI-H23 37.2 µM | NCI-H522 17 µM | UACC-257 40.9 µM | XF498 24.2 µM | OVCAR-8 37.9 µM | OVCAR-4 21.6 µM | SNB-19 25.7 µM | MOLT-4 19 µM | RXF 631 28.7 µM | SK-MEL-2 28.8 µM | RXF 393 11.1 µM | OVCAR-3 22.7 µM | CCRF-CEM 15.2 µM | CAKI-1 31.3 µM | IGROV-1 60.7 µM | SK-OV-3 47.3 µM | SF-295 35.3 µM | A549 49.5 µM | NCI-H460 43.9 µM | OVCAR-5 > 10 µM | K562 17.5 µM | SW-620 3.5 µM | EKVX 53.3 µM | LOX IMVI 24.4 µM | SN12C 34.2 µM | TK-10 59.7 µM | UO-31 29.5 µM | SF-268 25.3 µM | KM-20L2 > 10 µM | 786-0 36.3 µM | HOP-62 41.8 µM | HT-29 37.2 µM | DMS-273 26.7 µM | KM12 28.5 µM

Cc1cc2c(C)nn(Cc3ccccc3)c2c(C(=O)O)c1C
inactive: SNB-78 > 100 µM | NCI-H226 > 100 µM | SR > 100 µM | LXFL 529 > 100 µM | U-251 > 100 µM | ACHN > 100 µM | HL-60 > 100 µM | Malme-3M > 100 µM | SK-MEL-28 > 100 µM | RPMI-8226 > 100 µM | COLO 205 > 100 µM | M19-MEL > 100 µM | HOP-18 > 100 µM | HCC 2998 > 100 µM | UACC-62 > 100 µM | SF-539 > 100 µM | NCI-H23 > 100 µM | UACC-257 > 100 µM | XF498 > 100 µM | OVCAR-8 > 100 µM | SNB-19 > 100 µM | MOLT-4 > 100 µM | RXF 631 > 100 µM | SK-MEL-2 > 100 µM | RXF 393 > 100 µM | OVCAR-3 > 100 µM | CCRF-CEM > 100 µM | IGROV-1 > 100 µM | SK-OV-3 > 100 µM | SF-295 > 100 µM | A549 > 100 µM | OVCAR-5 > 100 µM | SW-620 > 100 µM | HCT-116 > 100 µM | EKVX > 100 µM | LOX IMVI > 100 µM | SN12C > 100 µM | TK-10 > 100 µM | UO-31 > 100 µM | SF-268 > 100 µM | KM-20L2 > 100 µM | HOP-92 > 100 µM | 786-0 > 100 µM | HOP-62 > 100 µM | DMS-273 > 100 µM
> 100 µM: HCT-15

C/C(=N/O)c1sc(-c2nc(C)c(/C(C)=N\O)s2)nc1C
> 100 µM: HCT-15
inactive: SNB-78 > 100 µM | NCI-H226 > 100 µM | SR > 100 µM | LXFL 529 > 100 µM | U-251 > 100 µM | DLD-1 > 100 µM | ACHN > 100 µM | HL-60 > 100 µM | Malme-3M > 100 µM | SK-MEL-5 > 100 µM | DMS-114 > 100 µM | SK-MEL-28 > 100 µM | M14 > 100 µM | RPMI-8226 > 100 µM | COLO 205 > 100 µM | A498 > 100 µM | M19-MEL > 100 µM | HOP-18 > 100 µM | HCC 2998 > 100 µM | UACC-62 > 100 µM | SF-539 > 100 µM | NCI-H23 > 100 µM | UACC-257 > 100 µM | XF498 > 100 µM | OVCAR-8 > 100 µM | OVCAR-4 > 100 µM | SNB-19 > 100 µM | MOLT-4 > 100 µM | RXF 631 > 100 µM | RXF 393 > 100 µM | OVCAR-3 > 100 µM | CCRF-CEM > 100 µM | CAKI-1 > 100 µM | IGROV-1 > 100 µM | SK-OV-3 > 100 µM | SF-295 > 100 µM | A549 > 100 µM | K562 > 100 µM | SW-620 > 100 µM | HCT-116 > 100 µM | EKVX > 100 µM | LOX IMVI > 100 µM | SNB-75 31.3 µM | SN12C > 100 µM | UO-31 > 100 µM | SF-268 > 100 µM | KM-20L2 > 100 µM | HOP-92 > 100 µM | 786-0 > 100 µM | HT-29 > 100 µM | DMS-273 > 100 µM
